Here are results for one compound from patent US20020006915A1, “Use of COX-2 inhibitors to treat sepsis, complications thereof, and EP receptor modulation” (priority 2000, published 2002).

The assay has as its system LPS stimulated human PBMC's. The experiment in a line: PGE2, LTB4 and TNF-α production from LPS stimulated PBMC's co-incubated with NS-398. In kind it is cell-based. As to the method:
The study included 10 patients sustaining either long-bone fracture or ≧15% total body surface burn and 10 control subjects (protocol approved by the Weill Medical College of Cornell University Internal Research Board). Blood samples were obtained within 12 hours of fracture or burn injury. Immune compromised patients including those with cancer, collagen-vascular diseases, HIV or any recent history of steroid or NSAID drug use were excluded from this study. Each patient sample was run simultaneously with a control sample.
Peripheral venous blood samples were collected into two heparin-EDTA tubes and placed on ice. 6 mL of Histopaque (Sigma Chemical Co., St. Louis, Mo.) was layered into a conical 15 mL tube and 6 mL of undiluted whole blood was gently layered over the top. Tubes were then centrifuged at 1000 rpm for 30 minutes at room temperature. A sterile pasteur pipet was used to gently collect the layer of PBMC's which were then transferred to a new 15 mL tube. Samples were washed twice with 10 mL Ca^+2 and Mg^+2-free Hanks Buffered Salt Solution (Gibco BRL-Life Technologies, Grand Island, N.Y.) and centrifuged at 1100 rpm for 10 minutes. The supernatant was discarded and the pellet resuspended in complete RPMI-1640 (Gibco BRL-Life Technologies, Grand Island, N.Y.) with 10% heat inactivated fetal bovine serum (Gibco BRL-Life Technologies, Grand Island, N.Y.) and 1% antibiotic/antimycotic solution. Cells were then adjusted to a final concentration of 1×10^6 cells/mL and plated. Cells were incubated at 37° C. in a 5% CO2 atmosphere with supernatants harvested at 24 hours and frozen at −70° C. for determination of prostaglandin and cytokine production.
Serial dilutions were made to co-culture cells with a final concentration of […] NS-398 in a 0.1% DMSO. Control and trauma groups were co-cultured with 0.1% DMSO vehicle for comparisons with NS-398 treated groups.

On to `CS(=O)(=O)Nc1ccc([N+](=O)[O-])cc1OC1CCCCC1` [NS-398, N-(2-cyclohexyloxy-4-nitrophenyl)methanesulfonamide], for which, for the setting “PBMC's after injury, co-culture with NS-398, P<0.05”, the TNF-α production entry was “significantly decreased production”. In addition, the PGE2 production result (PBMC's of injured patients, co-culture with 10μM NS-398, T vs TN P<0.001) is on record as “significantly reduced the production of PGE2”. The LTB4 production entry is “significant increase in the production of LTB4” (control cells, co-culture with NS-398, P<0.05) and “significant increase in the production of LTB4” (trauma cells, co-culture with NS-398, P<0.004).
